Data reported in PMC6273072, “Identification of a New Morpholine Scaffold as a P2Y12 Receptor Antagonist” (Molecules, 2016).
“And” between values parts separate entries of the source, which are not always exact repeats. Identical values can stand only once.

Key:
[1] = target: T1, rhP2Y12 receptor (Homo sapiens, UniProt Q9H244); experiment: rhP2Y12 receptor binding assay with [3H]ADP (HEK293T membranes); details: for IC50: 3 nM [3H]ADP, HEK293T-rhP2Y12 membranes
T1 construct: expressed in transfected cells
Procedure: (§1) The pDisplay-human P2Y12 DNA clone and pDisplay-human P2Y13 DNA clone were stably expressed in HEK293T and COS-7 cells, respectively; recombinant human (rh)P2Y12- and rhP2Y13-expressing cells were resuspended in hypotonic buffer consisting of 10 mM HEPES, 10 mM NaCl, 1 mM EDTA, 1 mM EGTA (pH 7.4), and protease inhibitor cocktail. Following 15-min incubation on ice, cells were homogenized on ice using a glass/teflon homogenizer (1000 rpm, 10 strokes). The homogenate was centrifuged at 500 × g for 15 min and the supernatant was centrifuged at 100,000× g for 30 min. The membrane pellet was adjusted to 1 mg/mL with membrane buffer consisting of 10 mM HEPES, 5 mM KCl, and 130 mM NaCl (pH 7.4) and stored at −80 °C. A 100-μL volume of 0.2 mg/mL membrane protein was added to each well of a 96-well plate along with 25 μL of test compound and [3H]2-MeSADP or [3H]ADP for a total reaction volume of 0.15 mL/well. The plate was incubated for 1 h at room temperature. The reaction was terminated by passing the solution through a GF/B filter presoaked with 0.1% polyethyleneimine using a 96-well cell harvester. […] Radioactivity of the P2Y12 receptor or P2Y13 receptor bound to the membrane were measured using a scintillation TopCount instrument (PerkinElmer, Boston, MA, USA). […] Percent inhibition of binding was calculated as follows: (100—(specific binding in the presence of test material/specific binding in the absence of test material × 100)).

[2] = target: T1, rhP2Y12 receptor; experiment: rhP2Y12 receptor binding assay with [3H]-2-MeSADP (HEK293T membranes); details: for IC50: 1 nM [3H]-2-MeSADP, HEK293T-rhP2Y12 membranes
Procedure: as §1

[3] = test system: ADP-induced platelet aggregation; experiment: Inhibition of ADP-induced platelet aggregation, 96-well light transmission aggregometry; assay type: cell-based, human; details: for IC50: 20 μM ADP; for effect of pre-incubation / time on inhibition of ADP-induced platelet aggregation, in words: data not shown
Procedure: Platelets were isolated from 400 mL whole blood containing 56 mL of CPDA-1 anticoagulant purchased from Chung-Nam Blood Center (Daejeon, South Korea) by centrifugation at 260× g for 5 min. The resultant platelet-rich plasma was centrifuged at 370× g for 6 min, and the platelet pellet (10^9/mL) was resuspended in 45 mL plasma and stabilized by agitation for 1 h at 22 °C in blood reservoir. The product was used for experiments within 24 h. Platelet concentrate (PC) was transferred to a new 50-mL Falcon tube and the number of platelets was counted using the ABC Vet blood counter (ABX Diagnostics, Montpellier, France). A 30-mL volume of PCs from the same donor was centrifuged at 1500× g for 10 min at room temperature to obtain platelet-poor plasma (PPP). The platelet count was adjusted to 3–4 × 10^8/mL by diluting with PPP.
Inhibition of ADP-induced aggregation was assessed in a Costar 96-well flat-bottom plate (Sigma-Aldrich, St. Louis, MO, USA) at room temperature. A 188-µL volume of the diluted platelet was added to each well of the plate along with 2 µL of test compound dissolved in dimethyl sulfoxide (DMSO). The reagents were mixed by placing the plate on a shaker at 1050 rpm for 1 min. A 10-µL volume of 400 μM ADP (final concentration: 20 μM) was added to the wells, and after additional shaking at room temperature for 3 min, the absorption of the samples was read at 595 nm on a Softmax microplate reader (Molecular Devices, Sunnyvale, CA, USA). A dose-response curve was generated using serial dilutions of ADP by adding the vehicle DMSO instead of antagonists in order to calculate the half-maximal effective concentration (EC50) of ADP. Inhibition of aggregation was determined as the increase in absorption at 595 nm after 3 min of incubation relative to absorption values of control preparations (0 and 20 μM ADP without antagonists). Sigmoidal dose-response curves and half-maximal inhibitory concentration (IC50) were derived by non-linear regression analysis using Prism 5.01 software (GraphPad, San Diego, CA, USA).

[4] = target: T2, human P2Y1 receptor (Homo sapiens, UniProt P47900); experiment: P2Y1-mediated Ca2+ mobilization in NIH3T3-P2Y1 + Gq cells (FLIPR); assay type: cell-based; details: for inhibitory effect at P2Y1 receptor, in words: up to 100 μM
T2 construct: expressed in transfected cells
Procedure: Intracellular Ca^2+ mobilization was analyzed using the FLIPR 5 assay kit as previously described. Briefly, pDisplay-human P2Y1 DNA clone and pcDNA-Gq DNA clone were stably expressed in NIH3T3 cells. NIH3T3-P2Y1 + Gq cells (3 × 10^5 cells/mL) were seeded in a 96-well plate and allowed to adhere overnight. An equal volume of FLIPR 5 assay kit loading buffer (Molecular Devices) was added directly to the culture medium for 1 h at room temperature, followed by 20-min incubation after adding the test compounds. Changes in intracellular Ca^2+ were measured with a FlexStation II scanning fluorometer (Molecular Devices).

[5] = target: T3, rhP2Y13 receptor (Homo sapiens, UniProt Q9BPV8); experiment: rhP2Y13 receptor [3H]2-MeSADP binding assay (COS-7 membranes)
T3 construct: expressed in transfected cells
T3 sequence (Q9BPV8 1-354): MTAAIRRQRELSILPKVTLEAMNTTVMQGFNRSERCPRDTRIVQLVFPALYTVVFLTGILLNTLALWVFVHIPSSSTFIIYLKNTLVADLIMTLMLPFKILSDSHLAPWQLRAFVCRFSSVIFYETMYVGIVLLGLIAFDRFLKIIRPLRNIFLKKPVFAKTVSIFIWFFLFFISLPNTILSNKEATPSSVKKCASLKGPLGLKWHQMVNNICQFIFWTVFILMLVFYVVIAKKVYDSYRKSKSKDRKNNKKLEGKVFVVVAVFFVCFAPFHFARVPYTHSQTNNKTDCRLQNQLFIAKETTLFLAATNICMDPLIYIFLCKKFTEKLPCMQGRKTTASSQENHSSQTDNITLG
Procedure: as §1

[6] = parameters: method as in PMID 25065553; details: side effect of ticagrelor; cited from earlier work
[7] = read-out: IC50 vs. [3H]-2-MeSADP
[8] = Homo sapiens, Platelet, 96-well plate

T1 sequence (Q9H244 whole entry): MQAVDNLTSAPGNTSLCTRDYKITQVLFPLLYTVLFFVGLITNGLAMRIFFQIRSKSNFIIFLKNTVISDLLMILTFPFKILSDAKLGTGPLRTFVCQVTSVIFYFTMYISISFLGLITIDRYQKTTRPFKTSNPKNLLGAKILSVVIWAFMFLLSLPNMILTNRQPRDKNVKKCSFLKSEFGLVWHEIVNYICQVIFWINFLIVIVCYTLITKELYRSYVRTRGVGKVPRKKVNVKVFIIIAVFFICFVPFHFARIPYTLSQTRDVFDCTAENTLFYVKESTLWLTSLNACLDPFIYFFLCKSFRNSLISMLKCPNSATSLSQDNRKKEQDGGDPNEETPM
T2 sequence (P47900 whole entry): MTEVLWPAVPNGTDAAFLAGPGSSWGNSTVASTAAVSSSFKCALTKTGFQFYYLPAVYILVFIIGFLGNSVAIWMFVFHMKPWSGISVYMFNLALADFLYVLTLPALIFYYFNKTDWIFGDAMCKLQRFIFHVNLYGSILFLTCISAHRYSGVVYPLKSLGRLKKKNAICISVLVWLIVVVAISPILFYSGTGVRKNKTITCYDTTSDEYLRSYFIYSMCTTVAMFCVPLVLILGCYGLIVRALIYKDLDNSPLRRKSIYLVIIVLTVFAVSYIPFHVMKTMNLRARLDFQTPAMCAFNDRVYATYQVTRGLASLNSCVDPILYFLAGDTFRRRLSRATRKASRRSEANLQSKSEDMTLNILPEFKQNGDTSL

Compound | IC50 ([1]; read-out: IC50 vs. [3H]ADP) | IC50 [2, 7] | IC50 [3, 8] | other results
COc1ccc(C(=O)C=CSc2nncn2C)cc1 [Compound D, 1-(4-methoxyphenyl)-3-[(4-methyl-1,2,4-triazol-3-yl)sulfanyl]prop-2-en-1-one] | > 30 µM | > 30 µM | 6.08 ± 0.11 µM | –
CN(C)c1ccc(C(c2cc3c(cc2O)OCO3)N2CCOCC2)cc1 (stereo not shown) [Compound E, 6-[(4-dimethylamino-phenyl)-morpholin-4-yl-methyl]-benzo[1,3]dioxol-5-ol] | 8.3 µM and 8.33 µM | 15.5 µM | 6.21 ± 0.71 µM | inhibitory effect at P2Y1 receptor, in words ([4]; 100 nM MRS2365): did not exert an inhibitory effect; fold higher potency vs [3H]ADP than vs [3H]2-MeSADP [1]: 1.9 fold; effect of pre-incubation / time on inhibition of ADP-induced platelet aggregation, in words [3]: did not increase the potency; inhibition of [3H]2-MeS-ADP binding to rhP2Y13, in words ([5]; up to 100 μM): did not inhibit
N#Cc1nccnc1S(=O)(=O)c1cccs1 [Compound F, 3-thiophen-2-ylsulfonylpyrazine-2-carbonitrile] | > 30 µM | > 30 µM | 9.35 ± 2.19 µM | inhibition of [3H]ADP binding to rhP2Y12, in words [1]: slightly inhibited; inhibition of [3H]-2-MeSADP binding to rhP2Y12, in words [2]: slightly inhibited
CNc1ncnc2c1ncn2[C@H]1C[C@H](OP(=O)(O)O)[C@@H](COP(=O)(O)O)O1 [MRS2179, reference compound] | – | – | – | IC50 ([4]; 100 nM MRS2365, read-out: IC50, block of MRS2365 action at P2Y1 receptor): 0.66 µM; IC50 ([3]; 96-well plate): 1.1 ± 0.01 µM
2-methylthioadenosine 5′-monophosphate [Compound 2-MeSAMP, reference compound] | – | – | – | inhibitory effect at P2Y1 receptor, in words ([4]; 100 nM MRS2365): did not exert an inhibitory effect; IC50 ([3]; 96-well plate): 1.09 ± 0.16 µM
Cc1nc(N=Nc2cc([N+](=O)[O-])ccc2Cl)c(COP(=O)(O)O)c(C=O)c1O [MRS2211] | – | – | – | IC50 ([5]; 1 nM [3H]2-MeSADP, read-out: IC50, inhibition of [3H]2-MeS-ADP binding to rhP2Y13): 9.4 µM
Nc1ncnc2c1ncn2[C@@H]1O[C@H](COP(=O)(O)OP(=O)(O)OP(=O)(O)O)[C@@H](O)[C@H]1O [ATP, Adenosine 5′-triphosphate, reference compound] | – | – | 2.14 ± 0.51 µM | –
CSc1nc(N)c2ncn([C@H]3[C@H](O)[C@H](O)[C@]4(COP(=O)(O)OP(=O)(O)O)C[C@H]34)c2n1 [MRS2365] | – | – | – | EC50 ([4]; Ca2+ mobilization, NIH3T3-P2Y1 + Gq cells, read-out: EC50 for P2Y1 receptor activation): 0.03 µM
COc1cccc(-n2nc(C#N)c(Cl)cc2=O)c1 [Compound A, 4-chloro-1-(3-methoxyphenyl)-6-oxopyridazine-3-carbonitrile] | > 30 µM | > 30 µM | 8.04 ± 0.51 µM | –
Cn1ncc(S(=O)(=O)Cc2ccccc2)c(Br)c1=O [Compound C, 5-benzylsulfonyl-4-bromo-2-methylpyridazin-3-one] | > 30 µM | > 30 µM | 4.03 ± 0.95 µM | –
Cn1sc(=O)c2cc(S(=O)(=O)NC3CC3)ccc21 [Compound B, N-cyclopropyl-1-methyl-3-oxo-2,1-benzothiazole-5-sulfonamide] | > 30 µM | > 30 µM | 9.49 ± 1.15 µM | –
Nc1ncnc2c1ncn2[C@@H]1O[C@H](COP(=O)(O)OP(=O)(O)O)[C@@H](O)[C@H]1O [[^3H]ADP, reference compound] | – | – | – | Kd ([1]; [3H]ADP saturation binding, read-out: Kd of radioligand at rhP2Y12 (saturation, Scatchard)): 0.0097 µM
CCCSc1nc(N[C@@H]2C[C@H]2c2ccc(F)c(F)c2)c2nnn([C@@H]3C[C@H](OCCO)[C@@H](O)[C@H]3O)c2n1 [Ticagrelor, reference compound] | – | – | 0.32 ± 0.02 µM | inhibitory effect at P2Y1 receptor, in words ([4]; 100 nM MRS2365): did not exert an inhibitory effect; fold lower potency vs [3H]ADP than vs [3H]2-MeSADP [1]: 210 fold; IC50 ([1]; IC50 vs. [3H]ADP): 8.4 ± 3.05 µM; IC50 ([2]; IC50 vs. [3H]-2-MeSADP): 0.04 ± 0.02 µM; shortness of breath (dyspnea) incidence [6]: 14%; effect of pre-incubation / time on inhibition of ADP-induced platelet aggregation, in words [3]: time-dependent manner; selectivity, rhP2Y13 in comparison to rhP2Y12 ([5]; [3H]2-MeS-ADP binding): > 1000 fold
Nc1ncnc2c1ncn2[C@@H]1O[C@H](COP(=O)(O)OP(=O)(O)O)[C@@H](O)[C@H]1O [ADP, Adenosine 5′-diphosphate, reference compound] | 0.19 ± 0.1 µM | 24.8 ± 2.09 µM | – | fold higher potency of ADP than 2-MeSADP in competing with [3H]ADP [1]: 90 fold; EC50 ([3]; Homo sapiens, Platelet, 96-well plate, read-out: EC50 of ADP, concentration-dependent platelet stimulation): 4.2 µM
CSc1nc(N)c2ncn([C@@H]3O[C@H](COP(=O)(O)OP(=O)(O)O)[C@@H](O)[C@H]3O)c2n1 [Compound 2-MeSADP, reference compound] | 17.2 ± 4.62 µM | 0.12 ± 0.02 µM | – | –
